Measured values as given in patent publication US12295365B2, “Composition including an antimicrobial boosting agent including a sultaine and methods of increasing the antimicrobial effectiveness of a composition” (KIMBERLY-CLARK WORLDWIDE, INC., priority 2018, dated 2025).
Structures can show the parent of a compound that is named as a salt.

System: B. cepacia (ATCC 25416)
Assay: Minimum Effective Concentration (MEC) Test Method
Format: cell-based, Burkholderia cepacia
Details: 24 hours at room temperature
Method: Initial testing was conducted to screen a variety of surfactants in researching for potential antimicrobial boosting agents. The initial testing followed the methodology as described in the Minimum Effective Concentration (“MEC”) Test Method described in the Test Methods section herein. To summarize, the MEC testing paired a variety of potential antimicrobial boosting agents with a variety of known antimicrobial agents to determine the MEC of the respective antimicrobial agent that must be used to provide an effective antimicrobial result, as described in further detail in the Test Methods section. The more positive the boosting characteristics of an antimicrobial boosting agent, then the lower the MEC that would be required for the paired antimicrobial agent. It is to be noted that the molarities listed in Table 1 are approximate values that were calculated based on the estimated activities of the ingredients and the molecular weights of the active ingredients. In instances where an exact activity was not available for an ingredient blend, the ingredient blend activity was estimated as the average of the upper and lower limits of the specification provided by the manufacturer of such blend. In instances where an exact molecular weight could not be calculated (for example, in compounds derived from a natural oil like coconut oil), the molecular weight of the active was estimated based on a weighted average of the molecular weights of the constituent species.
The Minimum Effective Concentration Test Method discussed herein began by adding B. cepacia (ATCC 25416) culture at a final concentration of approximately 5×10^6 CFU/mL to the composition to be challenged. The challenged composition was then allowed to incubate at room temperature for 24 hours. After 24 hours, a preservative neutralizing broth was added to the mixture and measurements were subsequently taken to determine the concentration of B. cepacia still remaining after exposure to the test composition.
The Minimum Effective Concentration was determined by completing the process described above on a series of compositions with the same concentration of antimicrobial boosting agent, but with different concentrations of antimicrobial agent. The Minimum Effective Concentration of antimicrobial agent for any given value of antimicrobial boosting agent was defined as the minimum concentration of antimicrobial agent required to reduce the concentration of B. cepacia to a level below the detection threshold for the test method, which was approximately 100 CFU/mL. In instances where multiple rounds of Minimum Effective Concentration testing were completed, the value reported is the mean of the Minimum Effective Concentration values generated by each individual series of tests.

[1] = boosting agent (the label) at 5 mmol/L

Molecule	MEC of Lactic Acid (Purac FCC 88) paired with the potential boosting agent [1]	other results
C[N+](C)(CCCS(=O)(=O)[O-])Cc1ccccc1 [Benzyl Sultaine, 3-(Benzyldimethylammonio)propanesulfonate]	40 mmol/L	
CCCCCCCC(=O)NO [Caprylhydroxamic Acid]		MEC of Caprylhydroxamic Acid (Zeastat) (no boosting agent): 10 mmol/L
CCCCCCCC[N+](C)(C)CCCS(=O)(=O)[O-] [Caprylyl Sultaine, 3-(N,N-Dimethyloctylammonio)propanesulfonate inner salt]	40 mmol/L	
CCCCCCCCCCCCCCCC[N+](C)(C)CC(=O)[O-] [Cetyl Betaine]	40 mmol/L	
CCCCCCCCCC[N+](C)(C)CCCS(=O)(=O)[O-] [Decyl Sultaine, 3-(Decyldimethylammonio)-propanesulfonate inner salt]	30 mmol/L	MEC of Hydroxyacetophenone (SymSave H) paired with the potential boosting agent [1]: 10 mmol/L
O=C(CO)c1ccccc1 [Hydroxyacetophenone]		MEC of Hydroxyacetophenone (SymSave H) (no boosting agent): 20 mmol/L
C[N+](C)(CCO)CC(O)C[N+](C)(C)CCO.[Cl-].[Cl-] [Hydroxypropyl Bis-Hydroxyethyldimonium Chloride]	50 mmol/L	
CC(O)C(=O)O (stereo not shown) [Lactic Acid]		MEC of Lactic Acid (Purac FCC 88) (no boosting agent): 60 mmol/L
CCCCCCCCCCCC[N+](C)(C)CC(O)CS(=O)(=O)[O-] (stereo not shown) [Lauryl Hydroxysultaine]	17 mmol/L	MEC of Caprylhydroxamic Acid (Zeastat) paired with the potential boosting agent [1]: <2 mmol/L; MEC of Hydroxyacetophenone (SymSave H) paired with the potential boosting agent [1]: <5 mmol/L; MEC of Sodium Benzoate paired with the potential boosting agent [1]: <1 mmol/L
CCCCCCCCCCCC[N+](C)(C)CCCS(=O)(=O)[O-] [Lauryl Sultaine, N-Dodecyl-N,N-dimethyl-3-ammonio-1-propanesulfonate]	20 mmol/L	MEC of Hydroxyacetophenone (SymSave H) paired with the potential boosting agent [1]: 10 mmol/L
CCCCCCCCCCCCCC[N+](C)(C)CCCS(=O)(=O)[O-] [Myristyl Sultaine, 3-(N,N-Dimethylmyristylammonio)propanesulfonate]	40 mmol/L	
CCCCCCCC[N+](C)(C)CC(=O)[O-] [Octyl Betaine]	40 mmol/L	
CCCCCCCC[N+](C)(C)[O-] [Octyldimethylamine Oxide]	40 mmol/L	
O=C([O-])c1ccccc1.[Na+] [Sodium Benzoate]		MEC of Sodium Benzoate (no boosting agent): 7.5 mmol/L
CCCCCCCCCCCC(=O)OC(C)C(=O)OC(C)C(=O)[O-].[Na+] (stereo not shown) [Sodium Lauroyl Lactylate]	30 mmol/L	
Lauramidopropyl Hydroxysultaine	30 mmol/L	
Laureth-3 Phosphate	40 mmol/L	
Lauryl Glucoside	>30 mmol/L	MEC of Sodium Benzoate paired with the potential boosting agent [1]: 10 mmol/L
Sodium Laurylglucosides Hydroxypropylsulfonate	>50 mmol/L	
